In PMC6449863, “Rational Design of Antiangiogenic Helical Oligopeptides Targeting the Vascular Endothelial Growth Factor Receptors” (Frontiers in Chemistry, 2019):
Square brackets hold non-standard residues; d marks the D form. Peptide text beside a SMILES is read from it. Aib = CC(C)(N)C(=O)O

Columns and labels:
[1] = biological target: T1, extracellular domain of VEGFR-1 (Homo sapiens, UniProt P17948); experiment: Chemiluminescent assay: inhibition of biotinylated VEGF165 binding to isolated VEGFR-1; details: peptide at 500 μM; chemiluminescence read-out
T1 construct: the extracellular domain of VEGFR-1; purchased R&D Systems
T1 sequence (P17948 27-758 limits assumed): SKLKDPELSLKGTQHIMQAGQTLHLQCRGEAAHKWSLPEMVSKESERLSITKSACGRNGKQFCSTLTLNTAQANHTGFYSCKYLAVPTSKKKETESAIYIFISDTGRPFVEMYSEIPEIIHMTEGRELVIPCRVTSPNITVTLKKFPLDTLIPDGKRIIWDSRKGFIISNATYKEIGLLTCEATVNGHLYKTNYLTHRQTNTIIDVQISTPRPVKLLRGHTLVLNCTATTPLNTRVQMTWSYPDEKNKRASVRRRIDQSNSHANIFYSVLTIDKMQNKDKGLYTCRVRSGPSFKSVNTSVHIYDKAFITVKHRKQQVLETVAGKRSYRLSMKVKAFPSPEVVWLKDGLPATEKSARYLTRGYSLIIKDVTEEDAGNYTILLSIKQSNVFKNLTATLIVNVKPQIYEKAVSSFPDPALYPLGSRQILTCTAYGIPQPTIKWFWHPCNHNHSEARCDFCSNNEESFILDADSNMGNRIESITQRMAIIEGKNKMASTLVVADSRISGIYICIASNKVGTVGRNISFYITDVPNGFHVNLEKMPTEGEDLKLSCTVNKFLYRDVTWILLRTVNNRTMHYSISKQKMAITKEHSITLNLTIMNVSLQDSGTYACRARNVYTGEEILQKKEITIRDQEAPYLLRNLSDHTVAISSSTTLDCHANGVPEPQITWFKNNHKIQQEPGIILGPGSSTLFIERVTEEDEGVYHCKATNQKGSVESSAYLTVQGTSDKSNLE
Description: A chemiluminescent assay to determine the inhibition of complex formation between VEGF-A (isoform VEGF165) and the extracellular domain of VEGFR-1 (Goncalves et al., [2007]; García-Aranda et al., [2013]) had been previously employed in our group (Zanella et al., [2015]). VEGF-C (from which analogue 1 was derived) is not selective for VEGFR-1 (Su et al., [2007]), but unfortunately the same assay protocol turned out to be ineffective with VEGFR-2, at least in our hands. The assay based on VEGFR-1 was therefore applied here as a very stringent test of the affinity of our peptides for VEGFRs, and to assess the different peptides comparatively. All peptides were able to inhibit complex formation (Table 3), although in the high micromolar range. […] Further studies were focused on analogues 5 and 6, considering also the higher stability of their secondary structure, which affects resistance to proteolytic degradation.
The chemiluminescent screening assay for the detection of VEGFR-1 ligands was accomplished according to the procedure described in the Supporting Information. […]
horseradish peroxidase diluted at 1:1000 in PBS containing 0.1% (v/v) Tween 20 and 0.3% (w/v) BSA were added per well. Af ter 1 h of incubation at r.t., the plate was washed f ive times with 150 μL of buffer A and 100 μL of SuperSignal W est Pico Chemiluminescent Substrate (Pierce, Rockford, IL, USA) were added. The remaining bt-VEGF165 was detected by chemiluminescence, which was quantif ied with a Synergy™ HT Multi -Detection Microplate Reader (BioTek Instruments, Inc.). The percentages of btVEGF165 displacement were calculated by the following formula: percentage of displacement = 100×[1−( S−NS) / (MS−NS)], where S is the signal measured, NS is the nonspecific binding signal and MS is the maximum binding signal observed with btVEGF165 without tested compounds. […]
loading: 0.5 mmol/g) were used.
Each coupling step consisted in:
1) activation of the Fmoc-protected amino acid;
2) addition of the activated amino acid to the resin at the synthesizer to start the coupling; 3) steps of capping, deprotection and washing.
To perform the automated SPPS, two solutions and two solvents were prepared: 25% Ac2O in DMF (v/v), 25% piperidine in DMF (v/v), methanol and DMF. W hile MeOH was used only as washing solvent, DMF was necessary either for washings and as solvent for the reactions of coupling, capping and deprotection. […]

trypsin = experiment: Resistance to proteolytic degradation, trypsin; format: in vitro ADME; details: Tris·HCl 50 mM pH 7.8, 37°C, RP-HPLC C18 read-out
Experimental: (§1) The proteolytic stability of peptides 1, 5, and 6 was assessed against three enzymes: pronase, trypsin and chymotrypsin (Sigma-Aldrich). Each peptide was dissolved in the appropriate buffer [i.e., (2-amino-2-hydroxymethyl-propane-1,3-diol (Tris)·HCl 20 mM, containing 20 mM CaCl2 pH 7.6 for pronase; Tris·HCl 50 mM, pH 7.8 for trypsin and chymotrypsin). Then, it was incubated with and without the enzyme solution (1.25 μg of enzyme in […] buffer) at 37°C for 12 h. The mixture was analyzed by RP-HPLC (column: Phenomenex Jupiter 5 μ C18 300 Å) every ten minutes for the first hour, then every half hour. Gradients: 5–25%B in 10 min for peptide 1; 15–35%B in 10 min for peptide 5; 15–25%B in 10 min for peptide 6. Eluants: A, H2O:CH3CN 9/1 + 0.05% trifluoroacetic acid (TFA); B: CH3CN:H2O 9/1 + 0.05% TFA.

chymotrypsin = experiment: Resistance to proteolytic degradation, chymotrypsin; format: in vitro ADME; details: Tris·HCl 50 mM pH 7.8, 37°C, RP-HPLC C18 read-out
Experimental: as §1

pronase = experiment: Resistance to proteolytic degradation, pronase; format: in vitro ADME; details: Tris·HCl 20 mM with 20 mM CaCl2 pH 7.6, 37°C, RP-HPLC C18 read-out
Experimental: as §1

[2] = biological target: T1, extracellular domain of VEGFR-1; details: chemiluminescent VEGFR-1 ligand screening assay; ref Zanella et al., 2015; read-out: IC50 of unlabeled VEGF165 (reference compound); cited from earlier work
Description: The chemiluminescent screening assay for the detection of VEGFR-1 ligands was accomplished according to the procedure described in the Supporting Information.

Compound	inhibition at 500 µM [1]	further results
CC[C@H](C)[C@H](NC(=O)C(C)(C)NC(C)=O)C(=O)N[C@@H](CC(=O)O)C(=O)N[C@@H](CC(N)=O)C(=O)NC(C)(C)C(=O)N[C@@H](Cc1c[nH]c2ccccc12)C(=O)N[C@@H](CCCNC(=N)N)C(=O)N[C@@H](CCCCN)C(=O)NC(C)(C)C(=O)N[C@@H](CCC(N)=O)C(N)=O [Peptide 3, Ac-Aib-Ile-Asp-As n -Aib-Trp-Arg -Lys-Aib-Gln-amide] (Ac-[Aib]IDN[Aib]WRK[Aib]Q-NH2)	86 ± 1%	–
CC(=O)NC(C)(C)C(=O)N[C@@H](Cc1c[nH]c2ccccc12)C(=O)N[C@@H](CC(=O)O)C(=O)N[C@@H](CC(N)=O)C(=O)NC(C)(C)C(=O)N[C@@H](Cc1c[nH]c2ccccc12)C(=O)N[C@@H](CCCNC(=N)N)C(=O)N[C@@H](CCCCN)C(=O)NC(C)(C)C(=O)N[C@@H](Cc1c[nH]c2ccccc12)C(N)=O [Peptide 4, Ac-Aib-Trp- Asp-Asn-Aib-Trp- Arg -Lys-Aib-Trp-amide] (Ac-[Aib]WDN[Aib]WRK[Aib]W-NH2)	40 ± 10%	–
Ac-IDNEWRKTQ-NH2 [Peptide 1, Ac-Ile-Asp-Asn-Glu-Trp-Arg -Lys-T hr -Gln-amide]	27 ± 1%	time within which peptide was degraded by trypsin (trypsin): ≤ 15 min; time within which peptide was degraded by chymotrypsin (chymotrypsin): ≤ 15 min; time within which peptide was degraded by pronase (pronase): ≤ 15 min
Ac-WDNEWRKTW-NH2 [Peptide 2]	29 ± 7%	–
VEGF165: VEGF-A isoform VEGF165, unlabeled, employed as reference compound in the VEGFR-1 assay	–	IC50 [2]: 146 pM
